Test results from ChEMBL document CHEMBL1201862, “PubChem BioAssay data set” (2004).
Calls of active or inactive are those of the source. Cut-off read from the data, not from the text of the source, for most assays here: actives have a measured IC50 and inactives only a lower limit.

Legend:
Type in all cases: functional
[1] = molecular target: T1, Replicative DNA helicase DnaB (Mycobacterium tuberculosis, UniProt P9WMR3); experiment: DnaB intein splicing inhibitors, dose response, biochemical, cell-free fluorescence (AID 449749)
T1 sequence (P9WMR3 whole entry): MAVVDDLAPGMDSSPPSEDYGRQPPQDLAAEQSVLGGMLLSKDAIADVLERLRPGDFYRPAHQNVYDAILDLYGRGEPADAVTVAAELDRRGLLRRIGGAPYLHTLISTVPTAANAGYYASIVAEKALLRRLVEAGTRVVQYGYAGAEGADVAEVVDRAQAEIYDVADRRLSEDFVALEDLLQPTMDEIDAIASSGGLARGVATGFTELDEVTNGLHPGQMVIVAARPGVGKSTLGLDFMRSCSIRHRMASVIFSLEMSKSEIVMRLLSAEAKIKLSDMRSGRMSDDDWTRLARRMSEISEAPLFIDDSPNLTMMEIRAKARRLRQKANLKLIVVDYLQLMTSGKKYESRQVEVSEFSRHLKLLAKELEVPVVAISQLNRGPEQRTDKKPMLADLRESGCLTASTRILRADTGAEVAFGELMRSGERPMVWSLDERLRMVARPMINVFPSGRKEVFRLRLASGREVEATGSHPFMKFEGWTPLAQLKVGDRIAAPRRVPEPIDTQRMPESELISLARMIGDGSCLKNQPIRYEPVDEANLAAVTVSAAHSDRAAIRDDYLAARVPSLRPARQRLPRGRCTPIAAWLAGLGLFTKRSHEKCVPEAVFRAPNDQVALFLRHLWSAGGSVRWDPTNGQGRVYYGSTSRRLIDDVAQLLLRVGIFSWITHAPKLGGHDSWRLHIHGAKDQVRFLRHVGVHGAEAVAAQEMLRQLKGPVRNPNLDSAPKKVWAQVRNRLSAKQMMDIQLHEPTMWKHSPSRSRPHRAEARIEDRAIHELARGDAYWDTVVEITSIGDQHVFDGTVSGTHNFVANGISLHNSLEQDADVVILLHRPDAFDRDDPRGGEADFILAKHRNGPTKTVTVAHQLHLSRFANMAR

[2] = molecular target: T2, Sentrin-specific protease 6 (Homo sapiens, UniProt Q9GZR1);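 note: Luminescence-based dose-response confirmatory assay of SENP6 inhibition, following up an ultra-high-throughput screen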
T2 sequence (Q9GZR1 whole entry): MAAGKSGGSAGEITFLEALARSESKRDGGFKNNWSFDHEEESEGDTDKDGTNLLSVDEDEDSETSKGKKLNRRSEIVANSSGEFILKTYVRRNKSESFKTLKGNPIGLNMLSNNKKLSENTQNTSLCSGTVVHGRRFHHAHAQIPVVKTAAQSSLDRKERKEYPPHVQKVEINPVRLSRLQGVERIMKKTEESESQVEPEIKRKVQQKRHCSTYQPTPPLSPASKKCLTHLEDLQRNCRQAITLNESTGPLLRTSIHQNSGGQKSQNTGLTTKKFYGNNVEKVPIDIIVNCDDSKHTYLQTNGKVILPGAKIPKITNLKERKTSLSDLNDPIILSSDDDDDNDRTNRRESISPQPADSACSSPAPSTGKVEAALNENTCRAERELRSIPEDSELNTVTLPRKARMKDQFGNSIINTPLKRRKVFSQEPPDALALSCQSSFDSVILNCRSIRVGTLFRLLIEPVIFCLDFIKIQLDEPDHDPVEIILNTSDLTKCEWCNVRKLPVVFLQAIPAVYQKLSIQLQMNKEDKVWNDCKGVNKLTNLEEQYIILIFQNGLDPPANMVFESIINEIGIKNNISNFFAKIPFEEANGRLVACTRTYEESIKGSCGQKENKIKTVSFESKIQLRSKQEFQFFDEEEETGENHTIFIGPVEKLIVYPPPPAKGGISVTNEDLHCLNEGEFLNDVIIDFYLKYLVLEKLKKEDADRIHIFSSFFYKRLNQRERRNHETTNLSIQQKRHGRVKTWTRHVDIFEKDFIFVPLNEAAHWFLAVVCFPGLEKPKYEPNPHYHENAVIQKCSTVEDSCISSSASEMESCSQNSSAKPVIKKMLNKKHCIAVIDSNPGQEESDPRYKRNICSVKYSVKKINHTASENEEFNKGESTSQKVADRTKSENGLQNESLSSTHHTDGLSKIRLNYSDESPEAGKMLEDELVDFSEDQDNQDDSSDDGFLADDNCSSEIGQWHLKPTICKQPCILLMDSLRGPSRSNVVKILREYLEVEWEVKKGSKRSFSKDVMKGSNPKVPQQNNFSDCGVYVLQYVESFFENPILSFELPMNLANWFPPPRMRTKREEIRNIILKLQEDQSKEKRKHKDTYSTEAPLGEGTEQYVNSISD

[3] = molecular target: T3, Sentrin-specific protease 7 (Homo sapiens, UniProt Q9BQF6);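 note: Luminescence-based dose-response confirmation of ultra-high-throughput screening hits, measuring inhibition of SENP7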
T3 sequence (Q9BQF6 whole entry): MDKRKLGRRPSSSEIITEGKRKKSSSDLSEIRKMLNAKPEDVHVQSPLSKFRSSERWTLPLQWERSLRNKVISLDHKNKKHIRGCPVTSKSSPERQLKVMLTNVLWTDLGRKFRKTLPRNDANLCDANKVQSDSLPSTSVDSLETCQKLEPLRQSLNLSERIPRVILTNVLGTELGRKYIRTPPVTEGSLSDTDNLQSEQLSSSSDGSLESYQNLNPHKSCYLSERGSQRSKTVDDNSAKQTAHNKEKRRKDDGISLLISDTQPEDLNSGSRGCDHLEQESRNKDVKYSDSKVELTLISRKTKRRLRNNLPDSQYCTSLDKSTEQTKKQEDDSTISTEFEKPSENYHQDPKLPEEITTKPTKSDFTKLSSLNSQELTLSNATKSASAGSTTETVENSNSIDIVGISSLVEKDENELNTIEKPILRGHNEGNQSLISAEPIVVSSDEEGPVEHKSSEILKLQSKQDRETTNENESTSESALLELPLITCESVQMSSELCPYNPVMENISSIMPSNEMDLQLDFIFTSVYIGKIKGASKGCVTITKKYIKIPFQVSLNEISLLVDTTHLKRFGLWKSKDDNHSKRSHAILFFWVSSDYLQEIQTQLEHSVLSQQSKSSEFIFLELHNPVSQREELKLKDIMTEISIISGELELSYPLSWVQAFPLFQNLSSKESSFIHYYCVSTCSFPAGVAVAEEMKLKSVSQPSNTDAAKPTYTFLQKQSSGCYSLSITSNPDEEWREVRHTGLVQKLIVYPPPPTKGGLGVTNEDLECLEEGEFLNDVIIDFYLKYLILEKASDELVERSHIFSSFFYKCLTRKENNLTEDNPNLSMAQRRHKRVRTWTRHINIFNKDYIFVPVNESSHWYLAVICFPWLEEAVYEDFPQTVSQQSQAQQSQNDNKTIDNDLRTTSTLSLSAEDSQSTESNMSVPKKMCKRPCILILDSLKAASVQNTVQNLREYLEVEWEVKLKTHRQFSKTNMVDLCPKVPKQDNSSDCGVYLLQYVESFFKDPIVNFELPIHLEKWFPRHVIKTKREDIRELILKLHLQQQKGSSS

## Cc1cccc(C)c1-n1cccc1/C=C1\SC(=S)N(c2cccc(C(=O)O)c2)C1=O
[1]
  AC50: 3.26 µM (active)

## Oc1ccc(/C=N/Nc2cc(N3CCCC3)nc(N3CCCC3)n2)cc1
[2]
  IC50: 6.05 µM (active)
[3]
  IC50: 31 µM (active)

## COc1ccc(S(=O)(=O)/N=C2\C=C(Nc3ccc(O)cc3)C(=O)c3ccccc32)cc1
[1]
  AC50: > 380 µM (inconclusive)

## COc1ccc(/C=N/Nc2cc(N3CCCC3)nc(N3CCCC3)n2)cc1
[2]
  IC50: 2.71 µM (active)
[3]
  IC50: 5.23 µM (active)
